Tests used:
Format in all cases: functional
[1] = system: Rattus norvegicus; assay: Antiinflammatory activity in Wistar albino rat assessed as carrageenan-induced paw edema at 50 mg/kg, po administered 30 mins prior to carrageenan-challenge measured after 2 hrs relative to control
[2] = system: Rattus norvegicus; assay: Antiinflammatory activity in Wistar albino rat assessed as carrageenan-induced paw edema at 50 mg/kg, po administered 30 mins prior to carrageenan-challenge measured after 3 hrs relative to control; settings: read-out: INH
[3] = system: Rattus norvegicus; assay: Antiinflammatory activity in Wistar albino rat assessed as carrageenan-induced paw edema at 50 mg/kg, po administered 30 mins prior to carrageenan-challenge measured after 1 hr relative to control
[4] = system: Rattus norvegicus; assay: Antiinflammatory activity in Wistar albino rat assessed as carrageenan-induced paw edema at 50 mg/kg, ip administered 30 mins prior to carrageenan-challenge measured after 2 hrs relative to control; settings: route intraperitoneal
[5] = system: Rattus norvegicus; assay: Antiinflammatory activity in Wistar albino rat assessed as carrageenan-induced paw edema at 50 mg/kg, ip administered 30 mins prior to carrageenan-challenge measured after 1 hr relative to control; settings: route intraperitoneal
[6] = system: Rattus norvegicus; assay: Antiinflammatory activity in Wistar albino rat assessed as carrageenan-induced paw edema at 50 mg/kg, ip administered 30 mins prior to carrageenan-challenge measured after 3 hrs relative to control; settings: route intraperitoneal

SMILES | inhibition in vivo at 50 mg/kg [1] [%] | inhibition in vivo at 50 mg/kg [2] [%] | inhibition in vivo at 50 mg/kg [3] [%] | inhibition in vivo at 50 mg/kg [4] [%] | inhibition in vivo at 50 mg/kg [5] [%] | inhibition in vivo at 50 mg/kg [6] [%]
O=C(c1ccc(Br)cc1)C(NNc1ccc(F)cc1)C(=O)C(F)(F)F (stereo not drawn) | 30.4 | 43.2 | 17.3 | – | – | –
COc1ccc(C(=O)C(NNc2ccc(F)cc2)C(=O)C(F)(F)F)cc1 (stereo not drawn) | 26.6 | 40.6 | 15.4 | – | – | –
O=C(c1ccc([N+](=O)[O-])cc1)C(NNc1ccc(F)cc1)C(=O)C(F)(F)F (stereo not drawn) | 8.86 | 18.2 | 5.05 | – | – | –
O=C(c1ccc(F)cc1)C(NNc1ccc(F)cc1)C(=O)C(F)(F)F (stereo not drawn) | 28.5 | 42.4 | 18.3 | – | – | –
O=C(c1cccs1)C(NNc1ccc(F)cc1)C(=O)C(F)(F)F (stereo not drawn) | 7.93 | 17.4 | 4.11 | – | – | –
O=C(O)Cc1ccccc1Nc1c(Cl)cccc1Cl [DICLOFENAC SODIUM] | – | – | – | 30.4 | 20.1 | 46.8

From ChEMBL document CHEMBL3046286, “4-Fluorophenylhydrazones as potential COX-2 inhibitors: a novel, efficient, one pot solid phase synthesis, docking study and pharmacological evaluation” (2013)
